Results as given in patent US8506942B2, “Hair care composition” (Conopco, Inc., priority 2007, dated 2013).

Target: T1, trypsin (Bos taurus, UniProt P00760)
T1 construct: gene PRSS1
T1 sequence (P00760 24-246): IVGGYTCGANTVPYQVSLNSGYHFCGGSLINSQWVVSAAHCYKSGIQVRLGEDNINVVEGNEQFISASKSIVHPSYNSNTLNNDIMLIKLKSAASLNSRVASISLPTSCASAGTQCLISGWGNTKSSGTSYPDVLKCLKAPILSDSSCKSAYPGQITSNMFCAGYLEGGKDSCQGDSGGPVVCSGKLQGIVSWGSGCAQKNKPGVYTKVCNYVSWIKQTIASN
Experiment: EnzChek Protease Assay measuring trypsin activity (trypsin inhibition)
Type: biochemical
Settings: for Trypsin activity (RFU): control (trypsin only) 1446 RFU; for Normalised activity: control (trypsin only) = 1.0
Excerpt: Hair growth follows a cycle of activity: anagen (growth phase), catagen (transitional/regression phase), telogen (dormant) followed by renewal of anagen. The telogen phase lasts approximately 3 months. […] The major biochemical activity at this stage is one of proteolysis whereby the proteins anchoring the hair fibre to the structure of the follicle are degraded (Paus & Krejic-Papa J Dermatol Sci 1994 Vol. 7, pp. 202-209; Krejic-Papa et al J Invest Derm Vol. 106, p 557). These enzymes are of the serine protease family of proteases.
Trypsin is a serine protease.
The following experiment uses trypsin as a model for the serine proteases involved in the process of hair fall (exogen). Successful inhibition the activity of the serine proteases such as trypsin is thought to delay the onset of exogen and decrease the amount of hair fall.
The EnzChek Protease Assay (E6639, Molecular Probes) was used to measure trypsin activity.

CC(C)(C)C(=O)C(Oc1ccc(Cl)cc1)n1ccnc1 (centres unmarked) [Climbazole]
Trypsin activity (RFU) (Climbazole 0.0225%): 1656 RFU | Normalised activity (Climbazole 0.0225%): 1.15 | Trypsin activity (RFU) (Climbazole 0.045%): 1553 RFU | Normalised activity (Climbazole 0.045%): 1.07 | effect on trypsin activity (summary of the tables of Examples 1-6): no effect (or perhaps a positive effect)
